Results reported in paper PMC11672294, “The Antipsychotic Drug Aripiprazole Suppresses Colorectal Cancer by Targeting LAMP2a to Induce RNH1/miR‐99a/mTOR‐Mediated Autophagy and Apoptosis” (Advanced Science, 2024).
Counter-ions that a name gives are not always drawn. Like-named read-outs stand apart in the source and are kept apart here.

Tested on: HT29
Conditions: 72 h, relative to DMSO, 10 µM
How it was run: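 HT29 viability used WST-1 reduction (2 h, 37 °C, A450) after 72 h of treatment; screening compounds were tested singly at 10 µM, with dimethyl sulfoxide as the comparison.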

Structure (SMILES) | Relative cell viability (%) [%] | Relative cell viability (%) (Relative cell viability (%)) [%]
CCCCCCCC(=O)N[C@H](CN1CCCC1)[C@H](O)c1ccc2c(c1)OCCO2 [Eliglustat Tartrate] | 81.62 | 
CCCCCCCCCCCC1=C(O)C(=O)C=C(O)C1=O [Embelin] | 140.6 | 
CC(C)c1nc(N(C)S(C)(=O)=O)nc(-c2ccc(F)cc2)c1/C=C/[C@@H](O)C[C@@H](O)CC(=O)O [Rosuvastatin Calcium] | 120.2 | 
N#CC[C@H](C1CCCC1)n1cc(-c2ncnc3[nH]ccc23)cn1 [S-Ruxolitinib (INCB018424)] |  | 98.54
COc1ccc(C(=O)N2CCCC2=O)cc1 [Aniracetam] | 91.43 | 
CN1CCN2c3ncccc3Cc3ccccc3C2C1 (stereo not drawn) [Mirtazapine] | 177.9 | 
O=C(CCCCCCNC(=O)c1cnc(N(c2ccccc2)c2ccccc2)nc1)NO [Rocilinostat (ACY-1215)] | 32.91 | 
CN(C)CC/C=C1/c2ccccc2Sc2ccc(Cl)cc21 [Chlorprothixene] | 28.39 | 
COc1cc(Nc2ncc(F)c(Nc3ccc4c(n3)N(COP(=O)(O)O)C(=O)C(C)(C)O4)n2)cc(OC)c1OC [R788 (Fostamatinib) Disodium] |  | 100.8
CCCCOc1cc(C(=O)OCCN(CC)CC)ccc1N [Oxybuprocaine HCl] | 56.67 | 
Nc1c(CC(=O)O)cccc1C(=O)c1ccc(Br)cc1 [Bromfenac Sodium] | 78.48 | 
CCCCNC(=O)NS(=O)(=O)c1ccc(C)cc1 [Tolbutamide] | 106.1 | 
S=C(NCc1ccc2c(c1)OCO2)N1CCN(c2ncnc3c2oc2ccccc23)CC1 [Amuvatinib (MP-470)] | 66.51 | 
Cc1c(-c2cnccn2)ssc1=S [Oltipraz] | 84.19 | 
COc1ccccc1OCC(O)CO (stereo not drawn) [Guaifenesin] | 74.15 | 
NC(=O)[C@@H](CCC(F)(F)F)N(Cc1ccc(-c2ncon2)cc1F)S(=O)(=O)c1ccc(Cl)cc1 [Avagacestat (BMS-708163)] | 74.3 | 
c1cn2cc(-c3ccc4cn[nH]c4c3)nc(Nc3ccc(N4CCOCC4)cc3)c2n1 [GS-9973] | 116.2 | 
COC(=O)Nc1nc2ccc([S+]([O-])c3ccccc3)cc2[nH]1 (stereo not drawn) [Oxfendazole] | 57.63 | 
Cc1cccc([C@H](C)c2cnc[nH]2)c1C [Dexmedetomidine HCl (Precedex)] | 113.8 | 
N#CC(c1ccc(Cl)cc1)c1c(Cl)cc(-n2ncc(=O)[nH]c2=O)cc1Cl (stereo not drawn) [Diclazuril] | 219 | 
COc1nc(N)nc2c1ncn2[C@@H]1O[C@H](CO)[C@@H](O)[C@@H]1O [Nelarabine] | 86.76 | 
CCN(Cc1ccncc1)C(=O)C(CO)c1ccccc1 (stereo not drawn) [Tropicamide] | 144.5 | 
CO[C@H]1O[C@@H]2O[C@@]3(C)CC[C@H]4[C@H](C)CC[C@@H]([C@H]1C)[C@@]24OO3 [Artemether] | 126.1 | 
CCc1nc(N)nc(N)c1-c1ccc(Cl)cc1 [Pyrimethamine] | 41.03 | 
CNC(=O)c1ccc(Nc2ncc(C(F)(F)F)c(NCc3nccnc3N(C)S(C)(=O)=O)n2)cc1 [Defactinib (VS-6063, PF-04554878)] | 67.52 | 
CC(=O)O[C@]1(C(C)=O)CC[C@H]2[C@@H]3C=C(Cl)C4=CC(=O)[C@@H]5C[C@@H]5[C@]4(C)[C@H]3CC[C@@]21C [Cyproterone Acetate] | 132.9 | 
C[C@H]1CNCCCN1S(=O)(=O)c1cccc2cncc(F)c12 [Ripasudil (K-115)] | 118.8 | 
CNC1CCCN(c2c(F)cc3c(=O)c(C(=O)O)cn(C4CC4)c3c2OC)C1 (stereo not drawn) [Balofloxacin] | 111.9 | 
CCN(c1cc(-c2ccc(CN3CCOCC3)cc2)cc(C(=O)NCc2c(C)cc(C)[nH]c2=O)c1C)C1CCOCC1 [EPZ-6438] | 121.4 | 
C=C(c1ccc(C(=O)O)cc1)c1cc2c(cc1C)C(C)(C)CCC2(C)C [Bexarotene] | 134.4 | 
